These results are taken from US11951108B2, “Combination therapy for treating cancer” (Epizyme, Inc., priority 2016, dated 2024).

One series concerns COV644*. Briefly: In vitro combination study, ovarian cancer cell line COV644. Particulars: COV644*; 7+3 model.
In a further series the test system is MDA-MB-231. Briefly: In vitro combination study, breast cancer cell line MDA-MB-231. Particulars: ER/PR −/−, HER2 −, 7 day pre-treatment + 6 day co-treatment.
A further series has as its system BT474. Kind of series: In vitro combination study, breast cancer cell line BT474. Conditions: ER/PR +/+, HER2 +, 7 day pre-treatment + 6 day co-treatment.
Another series relates to BT-20. Briefly: In vitro combination study, breast cancer cell line BT-20. Particulars: ER/PR −/−, HER2 −, 7 day pre-treatment + 6 day co-treatment.
The next series deals with SUM52PE. Kind of series: In vitro combination study, breast cancer cell line SUM52PE. Conditions: ER/PR −/−, HER2 −, 7 day pre-treatment + 6 day co-treatment.
The test system of another series is OVSAHO. Kind of series: In vitro combination study, ovarian cancer cell line OVSAHO. Particulars: 4+3 model.
The next series concerns HCC1937. Kind of series: In vitro combination study, breast cancer cell line HCC1937. Particulars: ER/PR −/−, HER2 +, 7 day pre-treatment + 6 day co-treatment.
For the next series, the system named is ES-2. Briefly: In vitro combination study, ovarian cancer cell line ES-2. Particulars: 4+3 model.
A further series has as its system MDA-MB-175VII. Kind of series: In vitro combination study, breast cancer cell line MDA-MB-175VII. Particulars: ER/PR +/+, HER2 +, 7 day pre-treatment + 6 day co-treatment.
In the next series the test system is COV362. Kind of series: In vitro combination study, ovarian cancer cell line COV362. Conditions: COV362; 4+3 model.
A further series has as its system HCC1187. Briefly: In vitro combination study, breast cancer cell line HCC1187. Particulars: ER/PR −/−, HER2 −, 7 day pre-treatment + 6 day co-treatment.

Consider `CN(Cc1cnc2nc(N)nc(N)c2n1)c1ccc(C(=O)N[C@@H](CCC(=O)O)C(=O)O)cc1` [Methotrexate], for which the “Synergy or antagonism of second agent with tazemetostat (IC50 shift of second agent)” value with COV644* is “A (Antagonism)”; in the series on OVMANA, “A (key: B: Synergy > 4× IC50 shift; Synergy > 2× IC50 shift; No Effect; Antagonism; X: Not Tested)”; with TOV112D, “A (key: B: Synergy > 4× IC50 shift; Synergy > 2× IC50 shift; No Effect; Antagonism; X: Not Tested)”; in the series with OVISE, “A (key: B: Synergy > 4× IC50 shift; Synergy > 2× IC50 shift; No Effect; Antagonism; X: Not Tested)”; in the series on MDA-MB-231, “A (Antagonism)”; with BT474 it was “A (Antagonism)”. For the same compound, the “Synergy or antagonism of second agent with tazemetostat (IC50 shift of second agent)” value with BT-20 is “C (Synergy > 2× IC50 shift)”; in the series on SNU840, “A (key: B: Synergy > 4× IC50 shift; Synergy > 2× IC50 shift; No Effect; Antagonism; X: Not Tested)”; in the series with COV504, “A (key: B: Synergy > 4× IC50 shift; Synergy > 2× IC50 shift; No Effect; Antagonism; X: Not Tested)”; with SUM52PE it was “A (Antagonism)”; in the series on OVSAHO, “A (Antagonism)”; in the series with HCC1937 it was “A (Antagonism)”. Further, the “Synergy or antagonism of second agent with tazemetostat (IC50 shift of second agent)” value in the series with ES-2 is reported as “A (Antagonism)”; in the series on MDA-MB-175VII it was “A (Antagonism)”; in the series on ZR-75-1, “A (key: B: Synergy > 4× IC50 shift; Synergy > 2× IC50 shift; No Effect; Antagonism; X: Not Tested)”; in the series with COV362, “A (Antagonism)”; with DU4475, “A (key: B: Synergy > 4× IC50 shift; Synergy > 2× IC50 shift; No Effect; Antagonism; X: Not Tested)”; with HCC1143, “A (key: B: Synergy > 4× IC50 shift; Synergy > 2× IC50 shift; No Effect; Antagonism; X: Not Tested)”. Besides, the “Synergy or antagonism of second agent with tazemetostat (IC50 shift of second agent)” value with HCC1187 is “A (Antagonism)”.
